{
  "source": "paper PMC3165048",
  "about": "(Chemistry & biology, 2010)",
  "system": "M. tuberculosis knock-in strains overexpressing MtMetAP1a or MtMetAP1c, wild-type and control strains",
  "type": "cell-based, M. tuberculosis CDC1551",
  "data": [
    {"smiles": "O=C1C(Cl)=C(Cl)C(=O)c2ccccc21", "note": "[Compound 4, 2,3-dichloro-1,4-naphthoquinone]", "values": [
      {"measurement": "Growth of MtMetAP1a knock-in strain in the presence of inhibitor", "result": "gained resistance"},
      {"measurement": "Growth of MtMetAP1c knock-in strain in the presence of inhibitor", "result": "gained resistance"},
      {"measurement": "Growth of wild-type and control M. tuberculosis strains in the presence of inhibitor", "result": "inhibited"}
    ]}
  ]
}
